According to the OPERA property sets (Mansouri et al. 2018):

Structure (SMILES) | logP
CC(=O)c1ccc(S(=O)(=O)c2ccc(N)cc2)cc1 | 1.67
Nc1ccc(S(=O)(=O)c2ccccc2)cc1 | 1.76
CCNc1ccc(S(=O)(=O)c2ccc(N)cc2)cc1 | 1.98
CCN(CC)c1ccc(S(=O)(=O)c2ccc(N)cc2)cc1 | 3
Nc1ccc(S(=O)(=O)c2ccc([N+](=O)[O-])cc2)cc1 | 2.04
Nc1ccc(S(=O)(=O)c2ccc(NO)cc2)cc1 | 0.88
NC(=O)c1ccc(S(=O)(=O)c2ccc(N)cc2)cc1 | 0.9
CCN(CC)C(=O)c1ccc(S(=O)(=O)c2ccc(N)cc2)cc1 | 1.44
COC(=O)c1ccc(S(=O)(=O)c2ccc(N)cc2)cc1 | 2.13
Nc1ccc(S(=O)(=O)c2ccc([N+](=O)[O-])cc2[N+](=O)[O-])cc1 | 1.84
N#Cc1ccc(S(=O)(=O)c2ccc(N)cc2)cc1 | 1.63

More lines, now with the values ahead:

logP | Structure (SMILES)
2.85 | Nc1ccc(S(=O)(=O)c2ccc(Br)cc2)cc1
1.96 | COc1ccc(S(=O)(=O)c2ccc(N)cc2)cc1
1.64 | COc1ccc(S(=O)(=O)c2ccc(N)cc2)c(OC)c1
1.57 | Nc1ccc(S(=O)(=O)c2ccc(O)cc2)cc1
1.03 | Nc1ccc(S(=O)(=O)c2cccc(N)c2)cc1
2.57 | Nc1ccc(S(=O)(=O)c2ccc(Cl)cc2)cc1
1.29 | Nc1ccc(S(=O)(=O)c2ccc(O)cc2O)cc1
3.06 | Cc1cc(C)c(S(=O)(=O)c2ccc(N)cc2)c(C)c1
1.99 | CN(C)c1ccc(S(=O)(=O)c2ccc(N)cc2)cc1
2.4 | Cc1ccc(S(=O)(=O)c2ccc(N)cc2)cc1
0.38 | Nc1ccc(S(=O)(=O)c2ccc(N)cc2N)cc1
2.71 | Cc1ccc(S(=O)(=O)c2ccc(N)cc2)c(C)c1
3.12 | Nc1ccc(S(=O)(=O)c2ccc(Cl)cc2Cl)cc1
1.56 | Nc1ccc(S(=O)(=O)c2ccccc2N)cc1
1.03 | COc1cc(OC)c(S(=O)(=O)c2ccc(N)cc2)c(OC)c1
